According to patent publication US12084451B2, “Compositions and methods for reducing tactile dysfunction, anxiety, and social impairment” (President and Fellows of Harvard College, priority 2018, dated 2024):
Read-outs that look alike come from different tables or passages of the source.

Assays:
Type in all cases: cell-based
[1] = biological target: T1, hGABAA α1β3γ2 (Homo sapiens, UniProt P14867+P18507+P28472); assay: hGABAA IonFlux HT PAM Assay, α1β3γ2; conditions: for Mean Maximal Effect (% of Control): normalized to baseline peak current induced by EC20 GABA (1 μM) for 2 seconds
From the text: (§1) Ligand-gated ion channels targeted were hGABAA α1β3γ2 and hGABAA α2β3γ2.
(§2) Electrophysiological assays conducted to profile nine (9) compounds for activities on the on channel targets listed above for Positive Allosteric Modulator (PAM) activities using the IonFlux HT electrophysiological platform.
The parameters measured are described in the Data Analysis section.
(§3) All wells included a final DMSO concentration of 0.33% including all control wells.
(§4) All recordings were obtained from a holding potential of −60 mV. The compound addition sequence that was used for all additions was the same for all assays. […] The process was repeated with the next ascending concentration of test compound (FIG. 1).
(§5) All data were first exported to an Excel compatible data file and then analyzed using Graph Pad Prism software.

[2] = biological target: hGABAA α2β3γ2 (Homo sapiens, UniProt P18507+P28472+P47869); assay: hGABAA IonFlux HT PAM Assay, α2β3γ2; conditions: for Mean Maximal Effect (% of Control): normalized to baseline peak current induced by EC20 GABA (0.8 μM) for 2 seconds
From the text: as §1, §2
The parameters measured are described in the Data Analysis section. […] Open circles represent data that has been excluded from the curve fitting. Where no curve fit was possible, n/c (not calculable) is listed.
as §3, §4, §5

[3] = biological target: T1, hGABAA α1β3γ2; assay: hGABAA α1β3γ2 IonFlux HT Agonist Assay; set-up: activation of hGABAA α1β3γ2 ion channel currents / activation: dose or concentration left out as unconfirmed; conditions: for activation / activation at 0.3 µM / activation at 1 µM / activation at 3 µM / activation at 10 µM / activation at 30 µM / activation at 100 µM / activation at 300 µM: read-out: Normalized Percentage Activation Mean
Experimental: Ligand-gated ion channel targets were hGABAA α2β3γ2 and hGABAA α1β3γ2. Electrophysiological assays conducted to profile two compounds for agonist activities on hGABAA α2β3γ2 and seven compounds for agonist activities on hGABAA α1β3γ2 using the IonFlux HT electrophysiological platform.
The parameters measured are described in the Data Analysis section. […] Note: The test compounds was applied over two (2) ‘experimental patterns’ in increasing concentrations.
The supplied compound was prepared in DMSO to concentrations that were 300× the final assay concentrations. Aliquots were taken out and diluted 300× into external buffer to give the final assay concentration. At wells included a final DMSO concentration of 0.33% including all control wets.
All recordings were obtained from a holding potential of −60 mV. The compound addition sequence that was used for all additions was the same for all assays. […] Each test concentration of compound was applied for 2 seconds followed by 60 seconds wash. The process was repeated with the next ascending concentration of test compound. The test compounds were applied over two (2) ‘experimental patterns’ in increasing concentrations (FIG. 11).
AM data were first exported to an Excel compatible data file and then analyzed using Graph Pad Prism software.

[4] = agonist activation of channel currents, read-out: Estimated EC50
[5] = positive modulation of EC20 GABA current
[6] = Estimated EC50, positive modulation of EC20 GABA current

Chain of hGABAA α2β3γ2 (P47869 29-451): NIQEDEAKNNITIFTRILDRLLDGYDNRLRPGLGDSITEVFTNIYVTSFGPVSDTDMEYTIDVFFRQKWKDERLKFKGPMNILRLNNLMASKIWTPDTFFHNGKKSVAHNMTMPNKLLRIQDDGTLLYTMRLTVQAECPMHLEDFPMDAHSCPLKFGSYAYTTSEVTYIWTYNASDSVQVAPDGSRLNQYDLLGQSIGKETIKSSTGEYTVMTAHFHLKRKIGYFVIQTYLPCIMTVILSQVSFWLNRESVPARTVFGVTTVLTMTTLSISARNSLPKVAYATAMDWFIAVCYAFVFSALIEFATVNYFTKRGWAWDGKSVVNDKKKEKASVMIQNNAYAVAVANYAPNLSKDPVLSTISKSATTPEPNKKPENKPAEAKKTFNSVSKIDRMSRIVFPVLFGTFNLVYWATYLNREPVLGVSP
Chain of hGABAA α2β3γ2 (P28472 26-473): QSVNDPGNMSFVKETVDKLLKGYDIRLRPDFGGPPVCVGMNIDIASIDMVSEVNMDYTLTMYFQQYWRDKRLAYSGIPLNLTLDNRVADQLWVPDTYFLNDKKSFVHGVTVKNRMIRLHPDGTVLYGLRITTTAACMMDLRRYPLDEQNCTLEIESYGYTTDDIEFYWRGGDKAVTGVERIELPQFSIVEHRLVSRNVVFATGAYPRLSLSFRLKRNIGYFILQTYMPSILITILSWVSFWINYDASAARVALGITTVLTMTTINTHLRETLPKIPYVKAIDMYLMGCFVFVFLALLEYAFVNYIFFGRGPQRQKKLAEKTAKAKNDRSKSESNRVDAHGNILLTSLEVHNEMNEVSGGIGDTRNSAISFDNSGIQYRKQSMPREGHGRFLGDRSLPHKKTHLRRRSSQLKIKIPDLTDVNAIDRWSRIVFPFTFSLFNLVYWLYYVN
Chain of hGABAA α2β3γ2 (P18507 40-475): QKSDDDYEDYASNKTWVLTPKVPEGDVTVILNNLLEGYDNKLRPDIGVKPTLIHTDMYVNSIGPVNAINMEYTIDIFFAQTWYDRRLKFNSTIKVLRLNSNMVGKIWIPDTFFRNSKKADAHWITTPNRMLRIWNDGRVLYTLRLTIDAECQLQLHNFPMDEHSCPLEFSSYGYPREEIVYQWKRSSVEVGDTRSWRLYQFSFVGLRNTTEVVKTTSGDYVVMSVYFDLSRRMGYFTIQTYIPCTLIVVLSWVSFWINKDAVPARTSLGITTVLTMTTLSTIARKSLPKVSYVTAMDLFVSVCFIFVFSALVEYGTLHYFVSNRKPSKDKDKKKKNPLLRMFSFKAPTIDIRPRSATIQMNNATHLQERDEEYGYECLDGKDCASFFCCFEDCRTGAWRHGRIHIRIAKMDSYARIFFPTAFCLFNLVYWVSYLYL
T1 sequence (P14867 28-456): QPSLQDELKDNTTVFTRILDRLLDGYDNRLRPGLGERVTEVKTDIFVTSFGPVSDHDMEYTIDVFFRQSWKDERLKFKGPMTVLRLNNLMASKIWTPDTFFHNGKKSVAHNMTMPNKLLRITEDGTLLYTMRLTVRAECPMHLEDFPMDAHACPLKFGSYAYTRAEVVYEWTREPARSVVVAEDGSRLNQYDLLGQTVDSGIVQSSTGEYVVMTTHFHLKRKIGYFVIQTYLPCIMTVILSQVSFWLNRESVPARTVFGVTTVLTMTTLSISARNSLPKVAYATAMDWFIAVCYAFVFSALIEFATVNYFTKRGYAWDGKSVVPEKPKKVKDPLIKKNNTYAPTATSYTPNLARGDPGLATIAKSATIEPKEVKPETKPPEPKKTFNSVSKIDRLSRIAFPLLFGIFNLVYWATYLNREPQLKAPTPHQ
T1 sequence (P28472 26-473): as the sequence (P28472 26-473) above
T1 sequence (P18507 40-475): as the sequence (P18507 40-475) above

For `CNCCN(C)C(=O)Cc1c(-c2ccc(C)cc2)nc2ccc(C)cn12` [Compound 1], the “Mean Maximal Effect (% of Control)” value [1] was 282 % of Control, the EC50 ([1]; read-out: Estimated EC50) was 0.654 µM and the “Mean Maximal Effect (% of Control)” value [2] was 181 % of Control. The EC50 ([2]; read-out: Estimated EC50) was 3 µM, the “activation of hGABAA α1β3γ2 ion channel currents” value [3] was “did not activate” and the EC50 [3, 4] was > 1000 µM. The activation [3] was 4.98%, the activation at 0.3 µM [3] was 1.64% and the activation at 1 µM [3] was 1.39%. For the same molecule, the activation at 3 µM [3] was 2.34%, the activation at 10 µM [3] was 6.52% and the activation at 30 µM [3] was 4.78%. For the same molecule, the activation at 100 µM [3] was 6.97% and the activation at 300 µM [3] was 7.15%.
With `CN(C)CCN(C)C(=O)CC1c2nccnc2C(=O)N1c1ccc(Cl)cn1` (stereo not shown) [Compound 6] the “Mean Maximal Effect (% of Control)” value [1] was 130 % of Control, the “Estimated EC50” value [1, 5] was “n/c” and the “Mean Maximal Effect (% of Control)” value [2] was 122 % of Control. The “Estimated EC50” value [2, 5] was “n/c”, the “activation of hGABAA α1β3γ2 ion channel currents” value [3] was “did not activate” and the EC50 [3, 4] was > 1000 µM. It also gave an activation [3] of 2.08%, an activation at 0.3 µM [3] of 1.59% and an activation at 1 µM [3] of 2.06%. It also gave an activation at 3 µM [3] of 1.9%, an activation at 10 µM [3] of 1.89% and an activation at 30 µM [3] of 1.74%. The activation at 100 µM [3] was 1.95% and the activation at 300 µM [3] was 2.19%.
In the case of `CN1CCN(C(=O)O[C@H]2c3nccnc3C(=O)N2c2ccc(Cl)cn2)CC1` [Eszopiclone], the “(%) Control mean” value ([1]; 0.001 μM + EC20 GABA) is reported as 105.7 % Control, the “(%) Control n1” value ([1]; 0.001 μM + EC20 GABA) is reported as 97.8 % Control and the “(%) Control n2” value ([1]; 0.001 μM + EC20 GABA) is reported as 113.5 % Control. The “(%) Control mean” value ([1]; 0.01 μM + EC20 GABA) was 140.3 % Control, the “(%) Control n1” value ([1]; 0.01 μM + EC20 GABA) was 132.0 % Control and the “(%) Control n2” value ([1]; 0.01 μM + EC20 GABA) was 148.7 % Control. For the same molecule, the “(%) Control mean” value ([1]; 0.1 μM + EC20 GABA) was 252.4 % Control, the “(%) Control n1” value ([1]; 0.1 μM + EC20 GABA) was 242.3 % Control and the “(%) Control n2” value ([1]; 0.1 μM + EC20 GABA) was 262.5 % Control. The “(%) Control mean” value ([1]; 1 μM + EC20 GABA) was 247.6 % Control, the “(%) Control n1” value ([1]; 1 μM + EC20 GABA) was 267.4 % Control and the “(%) Control n2” value ([1]; 1 μM + EC20 GABA) was 227.7 % Control. For the same molecule, the “(%) Control mean” value ([1]; 10 μM + EC20 GABA) was 252.4 % Control, the “(%) Control n1” value ([1]; 10 μM + EC20 GABA) was 262.3 % Control and the “(%) Control n2” value ([1]; 10 μM + EC20 GABA) was 242.5 % Control. For the same molecule, the “(%) Control mean” value ([1]; 100 μM + EC20 GABA) was 234.7 % Control, the “(%) Control n1” value ([1]; 100 μM + EC20 GABA) was 258.5 % Control and the “(%) Control n2” value ([1]; 100 μM + EC20 GABA) was 210.8 % Control. The EC50 [1, 6] was 0.012 µM, the “Mean Maximal Effect (% of Control)” value [1] was 252 % of Control and the EC50 [2, 6] was 0.164 µM. For the same molecule, the “Mean Maximal Effect (% of Control)” value [2] was 213 % of Control.
For `CCN(CCN(C)C)C(=O)OC1c2nccnc2C(=O)N1c1ccc(Cl)cn1` (stereo not shown) [Compound 4], the EC50 [1, 6] was 2.47 µM, the “Mean Maximal Effect (% of Control)” value [1] was 170 % of Control and the EC50 [2, 6] was 5.8 µM. The “Mean Maximal Effect (% of Control)” value [2] was 126 % of Control, the EC50 [3] was > 1000 µM and the “activation of hGABAA α1β3γ2 ion channel currents” value [3] was “did not activate”. The activation [3] was 4.45%, the activation at 0.3 µM [3] was 5.26% and the activation at 1 µM [3] was 5.13%. The activation at 3 µM [3] was 5.89%, the activation at 10 µM [3] was 5.68% and the activation at 30 µM [3] was 6.45%. For the same molecule, the activation at 100 µM [3] was 5.97% and the activation at 300 µM [3] was 5.85%.
